# Reference: patent US20250057808A1, “COMPOSITION COMPRISING BETA LACTAM FOR TREATING ALCOHOL DEPENDENCE AND ALCOHOL ASSOCIATED DISEASES OR CONDITIONS” (Temple University of the Commonwealth System of Higher …, priority 2023, published 2025)
# Entries after “also recorded” stand apart in the source; their conditions may differ.
# Assays:
# GLT-1 [1] = details: earlier studies, chronic ethanol; cited from earlier work
# [2] = earlier and literature studies in rats; cited from earlier work
# xCT [3] = details: earlier studies, chronic ethanol; cited from earlier work
# mGluR5 = assay: Western blot mGluR5 expression in NAc-core and NAc-shell; type: in vivo, P rats; details: MC-100093 50 mg/kg or ceftriaxone 200 mg/kg i.p. 5 days
# Method: (§1) We used micro-punch procedure to dissect the subregions of the NAc such as NAc-core and NAc-shell as well as the subregions of prefrontal cortex such as infralimbic (IL) and prelimbic (PL) from the brain on day 6 after the last injection day. P rats were removed from the cage and rapidly euthanized by CO2 inhalation followed by rapid decapitation with a guillotine. Brains were isolated and immediately frozen on dry ice and stored at −80° C. The stereotaxic coordinates provided by Paxinos and colleague's rat brain stereotactic atlas was used to isolate NAc-core and NAc-shell using a cryostat apparatus (−20° C.), which then kept at −80° C. for later western blot analyses.
# (§2) Western Blot assay was performed to measure changes in the expression of GLT-1, xCT, mGluR1, mGluR5, PPAR-α, PPARγ, GAPDH and β-tubulin in the NAc-core and NAc-shell as described in previous publications. A lysis buffer containing protease and phosphatase inhibitors was used to generate a homogenate of liver, Nac-core, and Nac-shell samples. The amount of protein was quantified using a detergent compatible protein assay (Bio-Rad, Hercules, CA, USA) for each sample. Samples were mixed with laemmli dye and loaded with equal amounts on polyacrylamide gels (10%), which separated the proteins using electrophoresis. After that, polyvinylidene difluoride (PVDF) membranes were used to transfer the proteins electrophoretically from the gels. Membranes were incubated in 5% free-fat milk in Tris-buffered saline with Tween-20 (TBST) for 30-60 minutes at room temperature. Membranes were then incubated with appropriate primary antibodies overnight at 4° C.: rabbit anti-GLT-1 (1:5000, Abcam, ab41621), rabbit anti-xCT (1:2000, Abcam, ab175186), rabbit anti-mGluR1 (1:1000, Abcam, ab82211), rabbit anti-mGluR5 (1:1000, Abcam, ab76316), rabbit anti-PPAR-α (1:1000, Abcam, ab24509), and rabbit anti-PPARγ (1:1000, Abcam, ab209350). Mouse anti-β-tubulin (1:1000; BioLegend) was used as a loading control antibody for the brain samples and rabbit anti-GAPDH (1:5000; cell signaling) was used as a loading control antibody for the liver samples. Membranes were washed five times on the next day with TBST followed by incubation with appropriate secondary antibody (1:5000) for 90 minutes at room temperature. Chemiluminescent reagents (Super Signal West Pico, Pierce Inc.) were used to detect the proteins using a GeneSys imaging system to develop the digitized blot images. Water-control group data were represented as 100% and all other values were expressed relative to control group to detect changes in the expression of the protein of interest in the brain and liver samples.
# (§3) All statistical analyses were conducted with Graphpad Prism software, with p-values of 0.05 or less being statistically significant. […]
# xCT [4] = assay: Western blot xCT expression in NAc-core, NAc-shell and liver (50 mg/kg study); type: in vivo, P rats; details: MC-100093 50 mg/kg or ceftriaxone 200 mg/kg i.p. 5 days
# Method: as §1, §2
# (§4) All statistical analyses were conducted with Graphpad Prism software, with p-values of 0.05 or less being statistically significant. We performed a two-way (mixed model) ANOVA followed by Bonferroni multiple comparison post-hoc test to analyze 24 h ethanol consumption, 24 h water consumption, and daily body weight. For the Western blot and oil red O staining analysis, we performed one-way ANOVA with Newman-Keuls as a post hoc multiple comparison test to measure differences between groups as a percentage (relative to control values).
# GLT-1 [5] = assay: Western blot GLT-1 expression in NAc-core, NAc-shell and liver (50 mg/kg study); type: in vivo, P rats; details: MC-100093 50 mg/kg or ceftriaxone 200 mg/kg i.p. 5 days
# Method: as §1, §2, §4
# [6] = Ethanol drinking paradigm, three-bottle choice (MC-100093 50 mg/kg vs ceftriaxone 200 mg/kg); type: in vivo, P rats
# Method: P rats were received from Indiana University School of Medicine (Indianapolis, IN, USA), and were housed in a 21° C. on a 12/12 h light/dark cycle-maintained room where they had free access to water and food. All experimental procedures were approved by the Institutional Animal Care and Use Committee (IACUC) of The University of Toledo, in accordance with the guidelines governing the use of animals in research of the National Institutes of Health as described in the Guidefor the Care and Use of Laboratory Animals.
# We used an ethanol drinking paradigm as described previously by Alhaddad, et al. (2014). Briefly, animals started the experimental drinking procedure at age of 90 days. The animals had five weeks of exposure to continuous three-bottle choice drinking, 0%, 15% and 30%, v/v ethanol in water, available concurrently. Daily measurement of ethanol intake was performed (g of ethanol intake/kg of body weight/day). We measured the baseline ethanol drinking by average the intake during the last three weeks. Three groups of P rats (n=8-9/group) exposed to the five weeks ethanol exposure. At week 6, rats in each group received daily intraperitoneal injection of either MC-100093 at dose of 50 mg/kg (Ethanol-MC group), Ceftriaxone at dose of 200 mg/kg (Ethanol-CEF group, which also serves as positive control), or equivolume of saline vehicle (Ethanol group) for five days. This paradigm results in pharmacologically relevant blood alcohol concentration (50-200 mg %). Following the criteria for the development of ethanol dependence, rats whose average ethanol intake <4 g/kg/day were excluded from the study. Beside the ethanol exposed groups, another group of P rats (n=8) exposed to only water and food throughout the exposure procedures (control group).
# as §4
# PPAR-γ = assay: Western blot PPAR-γ expression in liver; type: in vivo, P rats; details: MC-100093 50 mg/kg or ceftriaxone 200 mg/kg i.p. 5 days; between all groups
# Method: Western Blot assay was performed to measure changes in the expression of GLT-1, xCT, mGluR1, mGluR5, PPAR-α, PPARγ, GAPDH and β-tubulin in the NAc-core and NAc-shell as described in previous publications. A lysis buffer containing protease and phosphatase inhibitors was used to generate a homogenate of liver, Nac-core, and Nac-shell samples. The amount of protein was quantified using a detergent compatible protein assay (Bio-Rad, Hercules, CA, USA) for each sample. Samples were mixed with laemmli dye and loaded with equal amounts on polyacrylamide gels (10%), which separated the proteins using electrophoresis. After that, polyvinylidene difluoride (PVDF) membranes were used to transfer the proteins electrophoretically from the gels. Membranes were incubated in 5% free-fat milk in Tris-buffered saline with Tween-20 (TBST) for 30-60 minutes at room temperature. Membranes were then incubated with appropriate primary antibodies overnight at 4° C.: rabbit anti-GLT-1 (1:5000, Abcam, ab41621), rabbit anti-xCT (1:2000, Abcam, ab175186), rabbit anti-mGluR1 (1:1000, Abcam, ab82211), rabbit anti-mGluR5 (1:1000, Abcam, ab76316), rabbit anti-PPAR-α (1:1000, Abcam, ab24509), and rabbit anti-PPARγ (1:1000, Abcam, ab209350). […]
# PPAR-α = assay: Western blot PPAR-α expression in NAc-core, NAc-shell and liver; type: in vivo, P rats; details: MC-100093 50 mg/kg or ceftriaxone 200 mg/kg i.p. 5 days; among all groups
# Method: as §1, §2, §3
# mGluR1 = assay: Western blot mGluR1 expression in NAc-core and NAc-shell; type: in vivo, P rats; details: MC-100093 50 mg/kg or ceftriaxone 200 mg/kg i.p. 5 days; among all groups
# Method: as §1, §2, §3
# fat content in the liver = assay: Liver Oil Red O staining (fat content); type: in vivo, P rats; details: MC-100093 50 mg/kg or ceftriaxone 200 mg/kg i.p. 5 days, control, ethanol, ethanol-CEF groups
# Method: To measure the fat content in the liver sections, we used Oil Red O (Sigma, CAS Number 1320-06-5) staining on 10 μm thick formalin-fixed liver sections and placed in slides for further staining. The slides were stained with freshly prepared Oil Red O working solution 15 minutes then rinsed with 60% isopropanol. Slides were then rinsed with distilled water and mounted in aqueous mounting media and prepared for imaging. The degree of Oil Red O staining was determined at 20× magnification using a color video camera attached to an Olympus VS120 slide scanning microscope. Olympus OlyVIA software was used to analyze the images. The lipid droplets were quantified using Image J pro (NIH). Data are presented as the mean+SEM of the Oil Red O staining for each group.
# as §4
# [7] = ceftriaxone 200 mg/kg i.p. vs MC-100093 50 mg/kg i.p., days 2 through 5
smiles,measurement,setting,value
CC1CC=NN1C(=O)c1cccnc1 (centres unmarked) [MS-153],GLT-1 expression in the NAc,GLT-1 [1],upregulated GLT-1 and xCT expression in the NAc
same,Ethanol drinking behavior / consumption,[2],attenuated ethanol drinking behaviors
same,xCT expression in the NAc,xCT [3],upregulated GLT-1 and xCT expression in the NAc
Cc1ccc(C)c(OCCCC(C)(C)C(=O)O)c1 [Gemfibrozil],Ethanol drinking behavior / consumption,[2],reduced ethanol drinking behavior in rats
"CO/N=C(\C(=O)N[C@@H]1C(=O)N2C(C(=O)O)=C(CSc3nc(=O)c(=O)[nH]n3C)CS[C@H]12)c1csc(N)n1 [Ceftriaxone, reference compound]",GLT-1 expression in the NAc,GLT-1 [1],attenuation of downregulation of GLT-1 as well as xCT expression; also recorded: upregulated GLT-1 and xCT expression in the NAc
same,Protein expression of mGluR5 in the NAc-core,mGluR5; among all groups,non-significant difference; also recorded: no significant difference
same,Protein expression of mGluR5 in the NAc-shell,mGluR5; vs control or ethanol groups,"no significant change in the expression of mGluR5; also recorded: significantly downregulated in ethanol group compared to control, Ethanol-MC (50 mg/kg), and Ethanol-CEF (200 mg/kg) groups; also recorded: normalizing levels of mGluR5"
same,Protein expression of xCT in the NAc-core,xCT [4]; among all groups,non-significant difference; also recorded: no significant difference
same,Protein expression of xCT in the liver,xCT [4]; between all groups,no significant differences
same,Protein expression of xCT in the NAc-shell,xCT [4]; vs Ethanol group,significantly higher level of xCT; also recorded: significantly increased xCT expression
same,Protein expression of GLT-1 in the liver,GLT-1 [5],normalized GLT-1 level; also recorded: normalize the PPAR-α and GLT-1 levels in the liver
same,Protein expression of GLT-1 in the NAc-core,"GLT-1 [5]; among Control, Ethanol, Ethanol-MC, Ethanol-CEF",non-significant difference; also recorded: no significant difference
same,Protein expression of GLT-1 in the NAc-shell,GLT-1 [5]; vs Ethanol group,significantly increased
same,Ethanol drinking behavior / consumption,[2],decreased ethanol consumption in rats; also recorded: attenuated ethanol drinking behaviors
same,Body weight (grams),[6]; MC-100093 50 mg/kg i.p. or ceftriaxone 200 mg/kg i.p. 5 days,"Neither MC-100093 (50 mg/kg, i.p.) nor Ceftriaxone (200 mg/kg, i.p.) treatment has significant effect; also recorded: no significant effects"
same,Water intake (mL/day),"[6]; MC-100093 50 mg/kg i.p. or ceftriaxone 200 mg/kg i.p. 5 days, vs Ethanol-Saline group (MC-100093: at day 5 only)",significant increase in water consumption from day 1 through day 5; also recorded: significant increase in water consumption from day 2 through day 5
same,Ethanol consumption (g/kg of average body weight/24 hr),"[6]; P rats after 5 wk ethanol, MC-100093 50 mg/kg i.p. or ceftriaxone 200 mg/kg i.p. daily 5 days, vs Ethanol-Saline group",significant decrease in ethanol consumption from day 1 through day 5; also recorded: significantly reduced ethanol consumption from day 2 through day 5; also recorded: attenuated ethanol drinking behavior
same,"Ethanol consumption, Ethanol-Ceftriaxone compared to Ethanol-MC group",[6]; [7],significantly lower; also recorded: attenuate drinking behavior to a greater extent than MC-100093
same,"Water consumption, Ethanol-Ceftriaxone compared to Ethanol-MC group",[6]; [7],significantly higher
same,Protein expression of PPAR-γ in the liver,PPAR-γ,not changed significantly
same,Protein expression of PPAR-α in the NAc-core,PPAR-α,non-significant differences; also recorded: did not detect significant changes
same,Protein expression of PPAR-α in the NAc-shell,PPAR-α,non-significant differences; also recorded: did not detect significant changes
same,xCT expression in the NAc,xCT [3],attenuation of downregulation of GLT-1 as well as xCT expression; also recorded: upregulated GLT-1 and xCT expression in the NAc
same,Protein expression of mGluR1 in the NAc-core,mGluR1,non-significant difference; also recorded: no significant difference
same,Protein expression of mGluR1 in the NAc-shell,mGluR1,non-significant differences; also recorded: no significant difference
same,Liver fat content (Oil Red O stained fat droplets),fat content in the liver,"no significant difference in fat content between control, ethanol-MC, and ethanol-CEF groups; also recorded: significantly higher fat droplet content in ethanol group (p<0.05) compared to control, ethanol-MC or ethanol-CEF groups; also recorded: alleviated the liver steatosis"
